Laboratory results taken from PubChem BioAssay AID248 (DTP/NCI, 2004).
Values joined by “and” are separate entries in the source; they are usually repeats but may differ in a detail not shown here. Identical values can stand only once. Toxic doses and inconclusive results are not listed. Cut-off read from the data, not from the text of the source: active = T/C of 150% or more; inactive = T/C below 125%.

Test system: L1210 leukemia ip in BDF1 mice, survival T/C
Assay: NCI In Vivo Anticancer Drug Screen. Data for tumor model L1210 Leukemia (intraperitoneal) in B6D2F1 (BDF1) mice
Details: endpoint: mean survival time, higher = longer survival
In short: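 Transplanted-tumor mice were given test agent; controls received vehicle only. Survival readings from the two groups were divided (treated over control).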

[1] = dose: 100.0 mg/kg/injection, schedule: Q04DX002 (ip), vehicle: Klucel (hydroxypropylcellulose) (HPC)
[2] = dose: 200.0 mg/kg/injection, schedule: Q04DX002 (ip), vehicle: Klucel (hydroxypropylcellulose) (HPC)
[3] = dose: 400.0 mg/kg/injection, schedule: Q04DX002 (ip), vehicle: Klucel (hydroxypropylcellulose) (HPC)
[4] = dose: 100.0 mg/kg/injection, schedule: Q04DX003 (ip), vehicle: saline with Tween-80
[5] = dose: 200.0 mg/kg/injection, schedule: Q04DX003 (ip), vehicle: saline with Tween-80
[6] = dose: 400.0 mg/kg/injection, schedule: Q04DX003 (ip), vehicle: saline with Tween-80
[7] = dose: 100.0 mg/kg/injection, schedule: Q04DX002 (ip), vehicle: saline
[8] = dose: 200.0 mg/kg/injection, schedule: Q04DX002 (ip), vehicle: saline
[9] = dose: 400.0 mg/kg/injection, schedule: Q04DX002 (ip), vehicle: saline
[10] = dose: 100.0 mg/kg/injection, schedule: Q04DX003 (ip), vehicle: Klucel (hydroxypropylcellulose) (HPC)
[11] = dose: 200.0 mg/kg/injection, schedule: Q04DX003 (ip), vehicle: Klucel (hydroxypropylcellulose) (HPC)
[12] = dose: 400.0 mg/kg/injection, schedule: Q04DX003 (ip), vehicle: Klucel (hydroxypropylcellulose) (HPC)
[13] = dose: 100.0 mg/kg/injection, schedule: Q01DX001 (ip), vehicle: saline
[14] = dose: 200.0 mg/kg/injection, schedule: Q01DX001 (ip), vehicle: saline
[15] = dose: 100.0 mg/kg/injection, schedule: Q01DX001 (ip), vehicle: saline with Tween-80
[16] = dose: 200.0 mg/kg/injection, schedule: Q01DX001 (ip), vehicle: saline with Tween-80
[17] = dose: 400.0 mg/kg/injection, schedule: Q01DX001 (ip), vehicle: saline with Tween-80

Measured: T/C

Clc1ccc(/C=N/c2snc3ccccc23)cc1Cl
inactive: [1] 92 % of control | [2] 89 % of control | [3] 86 % of control

CN(CCC(C#N)(CCC#N)c1ccccc1)Cc1ccccc1 (stereo not given)
inactive: dose: 75.0 mg/kg/injection, schedule: Q01DX001 (ip), vehicle: saline 102 % of control | dose: 150.0 mg/kg/injection, schedule: Q01DX001 (ip), vehicle: saline 102 % of control

C/C=N\NC(N)=O
inactive: dose: 25.0 mg/kg/injection, schedule: Q04DX003 (ip), vehicle: saline 94 % of control | dose: 50.0 mg/kg/injection, schedule: Q04DX003 (ip), vehicle: saline 100 % of control

CCCOc1ccc(-c2nc(-c3ccc(N=Cc4ccc(N(CCCOS(C)(=O)=O)CCCOS(C)(=O)=O)cc4)cc3)cs2)cc1
inactive: [4] 91 % of control | [5] 86 % of control | [6] 89 % of control

CCCCCCCCCCCC(=O)NC(=S)Nc1ccc(C(=O)OCC)cc1
inactive: [7] 93 % of control | [8] 108 % of control | [9] 108 % of control

O=c1cc(Sc2ccccc2)[nH]c(=O)[nH]1
inactive: [10] 96 % of control | [11] 105 % of control | [12] 102 % of control

CCNc1ccc(F)cc1[N+](=O)[O-]
inactive: dose: 100.0 mg/kg/injection, schedule: Q01DX009 (ip), vehicle: saline sonified 110 % of control | [10] 103 % of control | dose: 200.0 mg/kg/injection, schedule: Q01DX009 (ip), vehicle: saline sonified 102 % of control | [11] 104 % of control | dose: 400.0 mg/kg/injection, schedule: Q01DX009 (ip), vehicle: saline sonified 102 % of control | [12] 97 % of control

CC(C(Nc1ccc(C(=O)O)cc1)C(F)(F)C(F)(F)C(F)(F)F)[N+](=O)[O-] (stereo not given)
inactive: [10] 88 % of control | [11] 89 % of control | [12] 98 % of control

O=CCSC(=S)NNc1ccccc1
inactive: dose: 100.0 mg/kg/injection, schedule: Q01DX009 (ip), vehicle: Klucel (hydroxypropylcellulose) (HPC) 106 % of control | [10] 88 % of control | dose: 200.0 mg/kg/injection, schedule: Q01DX009 (ip), vehicle: Klucel (hydroxypropylcellulose) (HPC) 95 % of control | [11] 91 % of control | [12] 96 % of control

COCc1c(COc2ccc(Cl)cc2)n(C)c2ccccc12
inactive: [1] 101 % of control | [2] 92 % of control | [3] 99 % of control

CCCC(=O)c1cc(C)sc1C
inactive: dose: 100.0 mg/kg/injection, schedule: Q01DX009 (sc), vehicle: olive oil, sesame oil, peanut oil 90 % of control | dose: 100.0 mg/kg/injection, schedule: Q04DX003 (sc), vehicle: olive oil, sesame oil, peanut oil 100 % of control | dose: 200.0 mg/kg/injection, schedule: Q01DX009 (sc), vehicle: olive oil, sesame oil, peanut oil 87 % of control | dose: 200.0 mg/kg/injection, schedule: Q04DX003 (sc), vehicle: olive oil, sesame oil, peanut oil 93 % of control | dose: 400.0 mg/kg/injection, schedule: Q01DX009 (sc), vehicle: olive oil, sesame oil, peanut oil 99 % of control | dose: 400.0 mg/kg/injection, schedule: Q04DX003 (sc), vehicle: olive oil, sesame oil, peanut oil 100 % of control

Cc1n[nH]c(C)c1Br
inactive: dose: 75.0 mg/kg/injection, schedule: Q01DX009 (ip), vehicle: saline with Tween-80 95 % of control | dose: 75.0 mg/kg/injection, schedule: Q04DX003 (ip), vehicle: saline with Tween-80 97 % of control | dose: 150.0 mg/kg/injection, schedule: Q01DX009 (ip), vehicle: saline with Tween-80 97 % of control | dose: 150.0 mg/kg/injection, schedule: Q04DX003 (ip), vehicle: saline with Tween-80 95 % of control | dose: 300.0 mg/kg/injection, schedule: Q01DX009 (ip), vehicle: saline with Tween-80 99 % of control | dose: 300.0 mg/kg/injection, schedule: Q04DX003 (ip), vehicle: saline with Tween-80 98 % of control

C[CH2][Ge]1([CH2]C)[CH2]CC2(C[CH2]1)NC(=O)N(CCCN(C)C)C2O (stereo not given)
inactive: [7] 96 % of control | [8] 100 % of control | [9] 88 % of control

O=C(/C=C/CBr)NC(Cc1ccccc1)C(=O)O (stereo not given)
inactive: dose: 75.0 mg/kg/injection, schedule: Q01DX001 (ip), vehicle: other 104 % of control

O=C1CC(=O)c2ccccc21
inactive: [4] 98 % of control | [5] 92 % of control | [6] 93 % of control

COP(=O)(OC)C(OC(=O)C(C)C)=C(C)C
inactive: [4] 112 % of control | [5] 110 % of control | [6] 102 % of control

Cc1ccc(C2(C)CCC(=O)c3cc(C)c(C)cc32)cc1C (stereo not given)
inactive: dose: 50.0 mg/kg/injection, schedule: Q01DX001 (ip), vehicle: saline 97 % of control | [13] 100 % of control | [14] 94 % of control | dose: 400.0 mg/kg/injection, schedule: Q01DX001 (ip), vehicle: saline 103 % of control

ClCCNCc1ccc(Nc2ccnc3cc(Cl)ccc23)cc1
inactive: dose: 75.0 mg/kg/injection, schedule: Q01DX001 (ip), vehicle: carboxymethylcellulose (CMC) 103 % of control

CCN(CCNC(=O)Nc1ccc(OC)cc1)c1ccccc1
inactive: dose: 100.0 mg/kg/injection, schedule: Q01DX009 (ip), vehicle: carboxymethylcellulose (CMC) 93 % of control and 100 % of control | [1] 103 % of control | dose: 100.0 mg/kg/injection, schedule: Q04DX002 (ip), vehicle: other 94 % of control and 98 % of control | dose: 100.0 mg/kg/injection, schedule: Q04DX003 (ip), vehicle: carboxymethylcellulose (CMC) 96 % of control | dose: 200.0 mg/kg/injection, schedule: Q01DX009 (ip), vehicle: carboxymethylcellulose (CMC) 93 % of control and 104 % of control | [2] 100 % of control | dose: 200.0 mg/kg/injection, schedule: Q04DX002 (ip), vehicle: other 91 % of control | dose: 200.0 mg/kg/injection, schedule: Q04DX003 (ip), vehicle: carboxymethylcellulose (CMC) 100 % of control | dose: 400.0 mg/kg/injection, schedule: Q01DX009 (ip), vehicle: carboxymethylcellulose (CMC) 96 % of control and 100 % of control | [3] 107 % of control | dose: 400.0 mg/kg/injection, schedule: Q04DX002 (ip), vehicle: other 102 % of control and 88 % of control | dose: 400.0 mg/kg/injection, schedule: Q04DX003 (ip), vehicle: carboxymethylcellulose (CMC) 96 % of control

CC(=O)[C@@]1(O)CC[C@H]2[C@@H]3C=C(C)C4=CC(=O)C=C[C@]4(C)[C@@]3(F)[C@@H](O)C[C@@]21C
inactive: dose: 50.0 mg/kg/injection, schedule: Q01DX001 (sc), vehicle: steriod suspending solution 96 % of control | dose: 100.0 mg/kg/injection, schedule: Q01DX001 (sc), vehicle: steriod suspending solution 102 % of control | dose: 200.0 mg/kg/injection, schedule: Q01DX001 (sc), vehicle: steriod suspending solution 105 % of control | dose: 400.0 mg/kg/injection, schedule: Q01DX001 (sc), vehicle: steriod suspending solution 118 % of control

CCOC(=O)c1ccc(N(CC(O)CN=[N+]=[N-])S(=O)(=O)c2ccc(C)cc2)cc1 (stereo not given)
inactive: [15] 101 % of control | dose: 100.0 mg/kg/injection, schedule: Q01DX009 (ip), vehicle: saline with Tween-80 102 % of control and 107 % of control | dose: 100.0 mg/kg/injection, schedule: Q04DX002 (ip), vehicle: saline with Tween-80 98 % of control | [4] 88 % of control | [16] 101 % of control | dose: 200.0 mg/kg/injection, schedule: Q01DX009 (ip), vehicle: saline with Tween-80 95 % of control and 100 % of control | dose: 200.0 mg/kg/injection, schedule: Q04DX002 (ip), vehicle: saline with Tween-80 93 % of control and 89 % of control | [17] 104 % of control | dose: 400.0 mg/kg/injection, schedule: Q01DX009 (ip), vehicle: saline with Tween-80 104 % of control and 91 % of control | dose: 400.0 mg/kg/injection, schedule: Q04DX002 (ip), vehicle: saline with Tween-80 96 % of control and 89 % of control | [6] 88 % of control

CCC(=O)Nc1cccc(OP(=O)(N(C)C)N(C)C)c1
inactive: [15] 96 % of control | [16] 102 % of control | [17] 88 % of control

O=C(CC(=O)c1ccccc1)Nc1ccccn1
inactive: [13] 101 % of control | [14] 98 % of control

CCCCC(O)(C#CC(O)(CC)CCCC)CC (stereo not given)
inactive: dose: 100.0 mg/kg/injection, schedule: Q01DX001 (ip), vehicle: other 103 % of control | dose: 200.0 mg/kg/injection, schedule: Q01DX001 (ip), vehicle: other 105 % of control | dose: 400.0 mg/kg/injection, schedule: Q01DX001 (ip), vehicle: other 102 % of control
